Reference: US20130303500A1, “COMPOUNDS AND METHODS FOR TREATING NEOPLASIA” (Medexis S.A., priority 2010, published 2013)

Experiments:
[1] = target: Na+/K+-ATPase (Adenosine 5′-Triphosphatase isolated from porcine cerebral cortex); experiment: Na+/K+-ATPase inhibitory activity, colorimetric Adenosine 5′-Triphosphatase Enzymatic Assay (Sigma); assay type: biochemical; conditions: enzyme from porcine cerebral cortex, 0.5 units/ml
Experimental: The compound inhibitory effect on ATPase activity was assessed in vitro using the colorimetric Adenosine 5′-Triphosphatase Enzymatic Assay of Sigma (St. Louis, Mo.) according to the manufacturer's instructions. This assay utilizes Adenosine 5′-Triphosphatase isolated from porcine cerebral cortex. Each reaction was performed in a final volume of […] using 0.5 units/ml enzyme in the presence of the different inhibitors. […] IC50 values were determined using the Origin® program software (OriginLab, Northampton, Mass.).

A549 (Lung) cells = experiment: Sulforhodamine B (SRB) assay, A549; assay type: cell-based; conditions: Homo sapiens; for CC50: A549, 48 h, read-out: LC50; for GI50 / IC (TGI): A549 Lung, SRB, 48 h
Experimental: (§1) Sulforhodamine B (SRB) assays were performed according to standard National Cancer Institute Guidelines. Briefly, human tumor cells from different cancer panels were seeded into 96 well plates in […] (plating densities ranging from 5-40,000 cells/well depending on the doubling time of individual cell lines) in serum-containing media for twenty-four hours prior to the addition of the compounds to be assayed. After 24 hours, one plate of each cell line was fixed in situ with trichloroacetic acid (TCA). The fixed slides were used to determine the cell population for each cell line at the time of drug addition (Tz). Each compound to be tested was solubilized in dimethyl sulfoxide (DMSO) and the desired concentration was then added to the medium and diluted serially 1:10 to provide a total of five or ten drug concentrations plus control (in a final volume of 200 μL). The starting dose before any dilution was 100 uM for all compounds.
(§2) Following drug addition, each culture was incubated for forty-eight hours. The assay was terminated with the addition of cold TCA. The supernatant was discarded, and the plates were washed with tap water and air dried. SRB solution was then added to each well. After staining, the bound stain was solubilized and the absorbance was read on an automated plate reader at a wavelength of 515 nm.
(§3) Using the absorbance measurements [time zero, (Tz), control growth, (C), and test growth in the presence of drug at the ten concentration levels (Ti)], the percentage growth was calculated at each of the drug concentrations levels. Percentage growth inhibition was calculated as:
(§4) [(Ti−Tz)/(C−Tz)]×100 for concentrations for which Ti>/=Tz
(§5) [(Ti−Tz)/Tz]×100 for concentrations for which Ti<Tz.
(§6) Three dose response parameters were calculated for each experimental agent. Growth inhibition of 50% (GI50) was calculated from [(Ti−Tz)/(C−Tz)]×100=50, which was the drug concentration resulting in a 50% reduction in the net protein increase (as measured by SRB staining) in control cells during the drug. The drug concentration resulting in total growth inhibition (TGI) was calculated from Ti=Tz. The LC50 (concentration of drug resulting in a 50% reduction in the measured protein at the end of the drug treatment as compared to that at the beginning) indicating a net loss of cells following treatment was calculated from [(Ti−Tz)/Tz]×100=−50.
(§7) Values were calculated for each of these three parameters when the level of activity was reached; however, if the effect was not reached or was exceeded, the value for that parameter was expressed as greater or less than the maximum or minimum concentration tested.

H460 (Lung) cells = experiment: Sulforhodamine B (SRB) assay, H460; assay type: cell-based, human; conditions: for TGI / GI50: H460 Lung, SRB, 48 h; for CC50 / GI50: Homo sapiens; for CC50: NCI-H460, 48 h, read-out: LC50; for GI50: NCI-H460
Experimental: as §1, §2, §3, §4, §5, §6, §7

[2] = system: NCI-ADR-RES (Ovarian) cells; experiment: Sulforhodamine B (SRB) assay, NCI-ADR-RES (multidrug resistant); assay type: cell-based, human; conditions: 48 h; for CC50 / GI50: Homo sapiens; for CC50: NCI/ADR-RES, read-out: LC50; for GI50 / TGI: NCI-ADR-RES Ovarian, SRB
Experimental: as §1, §2, §3, §4, §5, §6, §7

PC3 (Prostate) cells = experiment: Sulforhodamine B (SRB) assay, PC3; assay type: cell-based; conditions: Homo sapiens, Prostate cell, 48 h; for CC50: read-out: LC50; for GI50 / IC (TGI): PC3 Prostate, SRB
Experimental: as §1, §2, §3, §4, §5, §6, §7

SF268 (CNS) cells = experiment: Sulforhodamine B (SRB) assay, SF268; assay type: cell-based; conditions: Homo sapiens; for CC50: SF-268, 48 h, read-out: LC50; for GI50 / IC (TGI): SF-268, SF268 CNS, SRB, 48 h
Experimental: as §1, §2, §3, §4, §5, §6, §7

MCF7 (Breast) cells = experiment: Sulforhodamine B (SRB) assay, MCF7; assay type: cell-based, human; conditions: for CC50 / GI50: Homo sapiens; for CC50: MCF7, 48 h, read-out: LC50; for GI50 / TGI: MCF7 Breast, SRB, 48 h
Experimental: as §1, §2, §3, §4, §5, §6, §7

HCT116 (Colon) cells = experiment: Sulforhodamine B (SRB) assay, HCT116; assay type: cell-based, human; conditions: for TGI / GI50: HCT116 Colon, SRB, 48 h; for CC50 / GI50: Homo sapiens; for CC50: HCT-116, 48 h, read-out: LC50; for GI50: HCT-116
Experimental: as §1, §2, §3, §4, §5, §6, §7

DU145 (Prostate) cells = experiment: MTT cell proliferation/viability assay, DU145; assay type: cell-based; conditions: Homo sapiens, DU-145, 72 h
Experimental: Cell proliferation/viability was assessed by the MTT [3-(4,5-dimethylthiazol-2-yl)-2,5-diphenyltetrazolium bromide] assay, which is commercially available (Sigma, St. Louis, Mo.). Cells were cultured in 96-well plates for twenty-four hours (7-10.000 cells/well) and incubated with various concentrations of the different compounds—as indicated in the Figures—in serum-containing medium (or left untreated) for seventy-two hours. At the end of incubation, the medium was aspirated and MTT dissolved in RPMI 1640 w/o phenol red was added to each well to a final concentration of 0.25 mg/ml. After four hours incubation in the dark (37° C., 5% CO2) the supernatant was discarded. The converted dye (blue formazan crystals) was solubilized by adding 200 μl dimethylsulfoxide to each well. Absorbance was measured at 550 nm with reference at 655 nm using a spectrophotometer with the respective filters. All assays were performed in triplicate.
The effect of the different compounds on the proliferation and viability of two cancer cell lines (DU145/prostate and CAKI/renal) was tested through quantitative (4,5-dimethylthiazol-2-yl)-2,5-diphenyltetrazolium bromide (MTT) assays.

[3] = system: 7 different cell lines (lung, ovarian, prostate, CNS, breast, colon); experiment: SRB assays across 7 cell lines; assay type: cell-based, human; conditions: for CC50 / GI50: Homo sapiens; for CC50: read-out: LC50 values; for GI50 / GI50 action in most cell lines: SRB; for GI50: average over cell lines; for viability and/or cell proliferation of cell lines: cell lines representative of lung, breast, CNS, prostate, ovarian, colon and renal neoplasias; for anti-cancer activity in SRB assays: multiple cell lines
Experimental: as §1, §2, §3, §4, §5, §6, §7
SRB provides a colorimetric measure of a compound's anti-cancer activity. SRB assays were performed with compounds of the invention in 7 different cell lines, which represent six different tumor panels (lung, ovarian, prostate, CNS, breast, colon).

SMILES	IC50 [1]	CC50 (A549 (Lung) cells)	GI50 (A549 (Lung) cells)	IC (TGI) (A549 (Lung) cells)	TGI (H460 (Lung) cells)	CC50 (H460 (Lung) cells)	GI50 (H460 (Lung) cells)	CC50 [2]	GI50 [2]	CC50 (PC3 (Prostate) cells)	GI50 (PC3 (Prostate) cells)	IC (TGI) (PC3 (Prostate) cells)	CC50 (SF268 (CNS) cells)	GI50 (SF268 (CNS) cells)	IC (TGI) (SF268 (CNS) cells)	CC50 (MCF7 (Breast) cells)	GI50 (MCF7 (Breast) cells)	TGI (MCF7 (Breast) cells)	IC50 (DU145 (Prostate) cells)	viability and/or cell proliferation of cell lines [3]	also measured
CON=C1CC2C(CC[C@]3(C)C(=O)C(F)CC23)[C@@]2(C)CCC(=NOC3CCNC3)CC12 (stereo in doubt) [Compound 8, (5S,10R,13S,16R)-16a-fluoro-6-(methoxyimino)-10,13-dimethyl-3-((R)-pyrrolidin-3-yloxyimino)-tetradecahydro-2H-cyclopenta[a]phenanthren-17(14H)-one]	0.311 µM	0.075 µM	0.006 µM	0.029 µM	0.027 µM	0.074 µM	0.004 µM	0.508 µM	0.014 µM	0.919 µM	0.009 µM	0.199 µM	0.085 µM	0.004 µM	0.038 µM	6.96 µM	0.024 µM	0.327 µM	0.223 µM	reduced the viability and/or cell proliferation	TGI [2]: 0.071 µM; TGI (HCT116 (Colon) cells): 0.236 µM; CC50 (HCT116 (Colon) cells): 1.04 µM; GI50 (HCT116 (Colon) cells): 0.035 µM; CC50 [3]: < 1 µM; GI50 [3]: < 1 µM; anti-cancer activity in SRB assays [3]: best activity
C[C@]12CCC3C(CC(=O)[C@H]4CC(=NO[C@H]5CCNC5)CC[C@]34CO)C1CCC2=O (stereo partly drawn) [Compound 28, (5S,10S,13S)-10-(hydroxymethyl)-13-methyl-3-((S)-pyrrolidin-3-yloxyimino)-tetradecahydro-14H-cyclopenta[a]phenanthrene-6,17-dione]	12.9 µM	> 100 µM	62.6 µM	> 100 µM	>100 µM	> 100 µM	57.6 µM			157 µM	53.5 µM		> 100 µM	63.8 µM	> 100 µM	> 100 µM	76.5 µM	>100 µM	87 µM	reduced the viability and/or cell proliferation	
CON=C1CC2C(CC[C@]3(C)C(=O)CCC23)[C@@]2(CO)CCC(=NOC3CCNC3)CC12 (stereo in doubt) [Compound 30, (5S,10S,13S)-10-(hydroxymethyl)-6-methoxy-imino-13-methyl-3-((S)-pyrrolidin-3-yloxyimino)-tetradecahydro-14H-cyclopenta[a]phenanthrene-17-one]		29.6 µM	4.07 µM							75.2 µM	7.71 µM	36700 µM	78.4 µM	5.62 µM	25800 µM				6.7 µM		
C=C1CC2C(CC[C@]3(C)C(=O)C(F)CC23)[C@@]2(C)CCC(=NOC3CCNC3)CC12 (stereo partly drawn) [Compound 6, (5S,10R,13S,16R)-16a-fluoro-6-methylene-10,13-dimethyl-3-((R)-pyrrolidin-3-yloxyimino)-tetradecahydro-2H-cyclopenta[a]phenanthren-17(14H)-one]		0.053 µM	0.005 µM	0.008 µM	0.008 µM	0.053 µM	0.003 µM	0.079 µM	0.018 µM	1.24 µM	0.003 µM	0.055 µM	0.071 µM	< 0.001 µM	0.02 µM	1.28 µM	0.009 µM	0.082 µM		reduced the viability and/or cell proliferation	TGI [2]: 0.049 µM; TGI (HCT116 (Colon) cells): 0.088 µM; CC50 (HCT116 (Colon) cells): 0.728 µM; GI50 (HCT116 (Colon) cells): 0.009 µM; CC50 [3]: < 1 µM; GI50 [3]: < 1 µM; anti-cancer activity in SRB assays [3]: best activity
C[C@]12CCC3C(CC[C@H]4CC(=NO[C@H]5CCNC5)CC[C@]34CO)C1CCC2=O (stereo partly drawn) [Compound 25, (5S,10R,13S)-10-(hydroxymethyl)-13-methyl-3-((S)-pyrrolidin-3-yloxyimino)-tetradecahydro-2H-cyclopenta[a]phenanthren-17(14H)-one]	0.525 µM	> 100 µM	4.81 µM	9410 µM		> 100 µM	4.37 µM			9.44 µM	3.89 µM		85.4 µM	5.74 µM	31300 µM	> 100 µM	6.17 µM		15 µM	reduced the viability and/or cell proliferation	GI50 action in most cell lines [3]: single-digit micromolar
C[C@]12CCC(=NO[C@H]3CCNC3)C(c3ccccc3)C1CCC1C2CC[C@]2(C)C(=O)CCC12 (stereo partly drawn) [Compound 21, (10R,13S)-10,13-dimethyl-4-phenyl-3-((S)-pyrrolidin-3-yloxyimino)-tetradecahydro-2H-cyclopenta[a]phenanthren-17(14H)-one]	19.3 µM	45.3 µM	4.41 µM							49.1 µM	4.46 µM		57.2 µM	4.16 µM	8450 µM				13.5 µM	reduced the viability and/or cell proliferation	GI50 action in most cell lines [3]: single-digit micromolar
CC1CC2C(CC[C@]3(C)C(=O)C(F)CC23)[C@@]2(C)CCC(=NOC3CCNC3)C=C12 (stereo partly drawn) [Compound 86, 16-Fluoro-6,10,13-trimethyl-1,6,7,8,9,10,11,12,13,14,15,16-dodecahydro-2H-cyclopenta[a]phenanthrene-3,17-dione 3-(O-pyrrolidin-3-yl-oxime)]		8.05 µM	2.45 µM	5250 µM		8.07 µM	2.57 µM	48.1 µM	4.13 µM	72.4 µM	5.37 µM	9780 µM	8.11 µM	1.86 µM	4980 µM	59.3 µM	4.35 µM			reduced the viability and/or cell proliferation	CC50 (HCT116 (Colon) cells): 58.8 µM; GI50 (HCT116 (Colon) cells): 3.71 µM
